This note sets out measurements from publication PMC8151276, “An Integrated Approach toward NanoBRET Tracers for Analysis of GPCR Ligand Engagement” (Molecules, 2021).

What all share (format): binding
In one test the target is T1, CXCR6 (Homo sapiens, UniProt O00574).
T1 construct: purchased Promega (in-house HiBiT-GPCR construct library, NanoBRET)
The test can be described thus: NanoBRET screen HiBiT-CXCR6 in HEK293. The method, then: (§1) Each tracer candidate was screened across the entire library of HiBiT-GPCR constructs using NanoBRET as the detection modality. As depicted in Figure 4A, the specificity of interactions was evaluated through decrease in BRET due to competitive displacement of a bound tracer by excess parental compound. Each tracer was analyzed for binding to each HiBiT-GPCR fusion in the absence and in the presence of competing parental compound. Briefly, HEK293 cells were transfected with HiBiT-GPCR constructs diluted into promoterless DNA to reduce expression and maximize translocation to the cell surface. Each tracer candidate was then screened at concentrations of 1 μM and 0.1 μM across cells expressing these fusions. Cells were treated for 1.5 h with tracer either alone or in the presence of 20 μM competing parental compound (i.e., control). BRET was measured upon addition of purified LgBiT and subsequent complementation with HiBiT genetically fused to a GPCR. The specificity of interactions was assessed through a decrease in BRET signal due to competitive displacement of the bound tracer. To further gauge the robustness of these interactions, the fold response over the control (i.e., BRETtracer/BRETcontrol) was calculated. We chose a 1.5-fold response, which translates to ≥7-fold signal over noise as the minimal threshold required to score an interaction as positive. […]. Below we highlight the screening results obtained for our exemplary fluorescent tracers based on Clozapine, Amitriptyline and AZD1283.
(§2) HiBiT-GPCR DNA constructs were diluted in 10 mM Tris pH 8 to a final concentration of 0.01 μg/μL, arrayed in 96-well plates and stored at −20 °C. For transfection, HEK293 cells were suspended in Opti-MEM (without phenol red) supplemented with 2% fetal bovine serum (Seradigm) and 100 units/mL penicillin–streptomycin (Gibco) at a final concentration of 220,000 cells/mL and dispensed into white 96-well plates at 90 μL/well. Subsequent transfections and screens were carried using an Agilent Bravo Automated Liquid Handling Platform. First, the 96-well HiBiT DNA arrays were diluted 25-fold in Opti-MEM (without serum or phenol red) to a final concentration of 0.0004 μg/μL and 20 μL of the diluted DNAs were transferred into new 96-well plates. Next, promoterless carrier DNA (1 μg/μL) was diluted 25-fold (0.04 μg/μL) and then dispensed into the diluted arrays at 20 μL/well. Following brief mixing, Viafect transfection reagent (Promega) diluted 16-fold into Opti-MEM was dispensed into the plates at 40 μL/well. After mixing by pipetting, plates were incubated for 10 min on the pipetting station deck. The DNA-transfection reagent complexes were then added to plates containing cells. To facilitate the screen, 10 μL of DNA-transfection reagent complexes were added in duplicates to the top 4 and bottom 4 rows, resulting in two identical 48-well arrays per plate. Plates with transfected cells were incubated for 18–20 h at 37 °C/5% CO2. A screen of each tracer across the entire library using two different concentrations requires duplicate plates of transfected cells. Depending on the number of tracers being screened, transfections can be scaled up using the same ratios. The next day, for each tracer, four 20× screening solutions in tracer dilution buffer (Promega) were prepared: two duplicates at final concentration of 20 μM and two duplicates at a final concentration of 2 μM. A competing unmodified compound was added to one of each duplicate at a final concentration of 400 μM. The four resulting solutions were diluted 4-fold in Opti-MEM without serum or phenol red to generate 5× solutions (5 µM and 0.5 µM tracer +/− 100 μM competing compound). To screen the library, a BioTek MultiFlo FX liquid dispenser was used to dispense 22.5 µL of tracer solution to the top 4 rows and 22.5 µL tracer + competing compound solution to the 4 bottom rows. Plates were briefly mixed on an orbital shaker and incubated for 1.5 h at room temperature. […]
For orientation: In BRET a luciferase serves as donor, and the signal depends on an acceptor being close.

Another test has as its target T2, XCR1 (Homo sapiens, UniProt P46094).
T2 construct: purchased Promega (in-house HiBiT-GPCR construct library, NanoBRET)
T2 sequence (P46094 1-333): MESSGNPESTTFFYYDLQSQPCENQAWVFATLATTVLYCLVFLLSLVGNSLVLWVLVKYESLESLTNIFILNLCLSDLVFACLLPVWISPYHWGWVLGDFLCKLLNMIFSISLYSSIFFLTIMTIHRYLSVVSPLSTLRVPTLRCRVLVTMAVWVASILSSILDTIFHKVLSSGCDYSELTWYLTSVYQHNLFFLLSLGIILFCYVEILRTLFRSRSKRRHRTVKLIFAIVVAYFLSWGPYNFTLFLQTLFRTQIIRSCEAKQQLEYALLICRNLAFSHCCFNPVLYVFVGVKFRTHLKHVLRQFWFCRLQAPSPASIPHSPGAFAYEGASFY
The test can be described thus: NanoBRET screen HiBiT-XCR1 in HEK293. Here is the method:
as §1, §2

The target of another test is T3, HCRTR1 (Homo sapiens, UniProt O43613).
T3 construct: purchased Promega (in-house HiBiT-GPCR construct library, NanoBRET)
T3 sequence (O43613 1-425): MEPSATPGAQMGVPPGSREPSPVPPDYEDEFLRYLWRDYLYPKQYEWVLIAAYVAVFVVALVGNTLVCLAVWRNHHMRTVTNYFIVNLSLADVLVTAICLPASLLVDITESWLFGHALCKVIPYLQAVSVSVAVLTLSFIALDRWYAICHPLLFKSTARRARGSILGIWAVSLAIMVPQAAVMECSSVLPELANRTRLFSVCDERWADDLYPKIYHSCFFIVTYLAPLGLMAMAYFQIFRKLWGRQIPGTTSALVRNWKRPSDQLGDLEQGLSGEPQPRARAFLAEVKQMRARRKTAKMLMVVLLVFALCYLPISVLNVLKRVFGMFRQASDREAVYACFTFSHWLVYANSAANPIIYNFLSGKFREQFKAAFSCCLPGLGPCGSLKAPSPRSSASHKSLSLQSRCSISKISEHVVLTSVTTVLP
As to the kind of experiment: NanoBRET screen HiBiT-HCRTR1 in HEK293. The method, then: as §1, §2

The next test deals with T4, SSTR4 (Homo sapiens, UniProt P31391).
T4 construct: purchased Promega (in-house HiBiT-GPCR construct library, NanoBRET)
T4 sequence (P31391 whole entry): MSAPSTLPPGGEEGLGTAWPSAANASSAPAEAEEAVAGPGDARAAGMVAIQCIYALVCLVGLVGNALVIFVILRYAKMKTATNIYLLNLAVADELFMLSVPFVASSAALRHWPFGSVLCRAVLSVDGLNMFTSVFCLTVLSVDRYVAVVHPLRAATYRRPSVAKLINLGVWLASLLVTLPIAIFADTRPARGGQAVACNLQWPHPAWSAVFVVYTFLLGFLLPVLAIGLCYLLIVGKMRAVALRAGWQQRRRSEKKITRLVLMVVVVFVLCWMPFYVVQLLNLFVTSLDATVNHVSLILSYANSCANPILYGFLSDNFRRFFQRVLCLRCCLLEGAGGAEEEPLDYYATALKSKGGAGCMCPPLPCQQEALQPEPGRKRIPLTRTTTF
As to the kind of experiment: NanoBRET screen HiBiT-SSTR4 in HEK293. Here is the method:
as §1, §2

The target of another test is T5, NPBWR1 (Homo sapiens, UniProt P48145).
T5 construct: purchased Promega (in-house HiBiT-GPCR construct library, NanoBRET)
T5 sequence (P48145 1-328): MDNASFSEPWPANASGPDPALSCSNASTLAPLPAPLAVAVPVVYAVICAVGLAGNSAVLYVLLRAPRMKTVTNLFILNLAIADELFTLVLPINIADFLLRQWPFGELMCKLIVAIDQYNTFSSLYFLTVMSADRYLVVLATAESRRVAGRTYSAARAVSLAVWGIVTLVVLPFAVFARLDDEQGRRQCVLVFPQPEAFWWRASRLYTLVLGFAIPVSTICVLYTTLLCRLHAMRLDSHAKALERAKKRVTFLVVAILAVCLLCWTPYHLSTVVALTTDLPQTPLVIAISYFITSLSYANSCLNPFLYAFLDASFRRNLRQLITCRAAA
The test can be described thus: NanoBRET screen HiBiT-NPBWR1 in HEK293. The method, then:
as §1, §2

T1 sequence (O00574 whole entry): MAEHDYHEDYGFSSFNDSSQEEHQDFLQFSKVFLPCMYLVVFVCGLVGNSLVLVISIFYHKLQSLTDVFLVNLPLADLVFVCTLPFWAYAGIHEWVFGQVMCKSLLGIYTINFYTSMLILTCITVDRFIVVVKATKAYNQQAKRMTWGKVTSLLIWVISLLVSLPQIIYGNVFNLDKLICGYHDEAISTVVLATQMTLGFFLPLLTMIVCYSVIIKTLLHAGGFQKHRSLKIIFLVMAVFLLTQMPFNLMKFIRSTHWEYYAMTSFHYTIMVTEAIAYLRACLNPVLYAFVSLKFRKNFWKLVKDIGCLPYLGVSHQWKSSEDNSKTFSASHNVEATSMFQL

With `COc1ccc2c(n1)c(CCNC(C)=O)cn2CCNC(=O)CCc1ccc2n1[B-](F)(F)[N+]1=C(c3ccc[nH]3)C=CC1=C2` [Azamelatonin-1-NB590], the “NanoBRET Fold Response” value came out at 1.07 on CXCR6 (0.1μM tracer); 0.89 at CXCR6 (1μM tracer); 1.33 at XCR1 (0.1μM tracer); 1.18 at XCR1 (1μM tracer); 0.93 at HCRTR1 (0.1μM tracer); 0.84 at HCRTR1 (1μM tracer). In addition, the “NanoBRET Fold Response” value on SSTR4 (0.1μM tracer) came to 0.93; at SSTR4 (1μM tracer), 1.01; at NPBWR1 (0.1μM tracer), 0.88; on NPBWR1 (1μM tracer), 0.84.
Take `CC(C)N(CC[C@H](c1ccccc1)c1cc(CCNC(=O)c2ccc(CNC(=O)CCc3ccc4n3[B-](F)(F)[N+]3=C(c5ccc[nH]5)C=CC3=C4)cc2)ccc1O)C(C)C` [Tolterodine-BZ-NB590]: the “NanoBRET Fold Response” value is given as 0.99 at CXCR6 (CXCR6, tracer 0.1μM); 0.98 on CXCR6 (CXCR6, tracer 1μM); 0.80 on XCR1 (XCR1, tracer 0.1μM); 0.95 on XCR1 (XCR1, tracer 1μM); 0.86 on HCRTR1 (HCRTR1, tracer 0.1μM); 1.07 at HCRTR1 (HCRTR1, tracer 1μM). Further, the “NanoBRET Fold Response” value on SSTR4 (SSTR4, tracer 0.1μM) is given as 0.99; at SSTR4 (SSTR4, tracer 1μM), 0.93; on NPBWR1 (NPBWR1, tracer 0.1μM), 1.00; at NPBWR1 (NPBWR1, tracer 1μM), 1.01.
In the case of `O=C(CCc1ccc2n1[B-](F)(F)[N+]1=C(c3ccc[nH]3)C=CC1=C2)NCCOCCOCCNC(=O)OCCOCCN1CCN(C2=Nc3ccccc3Sc3ccccc32)CC1` [Quetiapine-a-2-NB590], the “NanoBRET Fold Response” value on CXCR6 (CXCR6, tracer 0.1μM) is recorded as 0.98; on CXCR6 (CXCR6, tracer 1μM) it was 1.12; on XCR1 (XCR1, tracer 0.1μM), 1.07; on XCR1 (XCR1, tracer 1μM), 1.04; at HCRTR1 (HCRTR1, tracer 0.1μM), 0.98; on HCRTR1 (HCRTR1, tracer 1μM) it was 0.77. Moreover, the “NanoBRET Fold Response” value at SSTR4 (SSTR4, tracer 0.1μM) was determined as 0.99; at SSTR4 (SSTR4, tracer 1μM), 0.83; on NPBWR1 (NPBWR1, tracer 0.1μM), 1.01; on NPBWR1 (NPBWR1, tracer 1μM), 1.04.
In the case of `Cc1cc2c(s1)Nc1ccccc1N=C2N1CCN(CCCNC(=O)CCOCCOCCOCCOCCNC(=O)CCc2ccc3n2[B-](F)(F)[N+]2=C(c4ccc[nH]4)C=CC2=C3)CC1` [Olanzapine-a-2-NB590], the “NanoBRET Fold Response” value is 1.00 on CXCR6 (CXCR6, tracer 0.1μM); 0.98 on CXCR6 (CXCR6, tracer 1μM); 0.88 on XCR1 (XCR1, tracer 0.1μM); 1.27 on XCR1 (XCR1, tracer 1μM); 0.98 at HCRTR1 (HCRTR1, tracer 0.1μM); 0.99 on HCRTR1 (HCRTR1, tracer 1μM). Also, the “NanoBRET Fold Response” value at SSTR4 (SSTR4, tracer 0.1μM) worked out at 0.98; at SSTR4 (SSTR4, tracer 1μM), 1.04; at NPBWR1 (NPBWR1, tracer 0.1μM), 0.99; at NPBWR1 (NPBWR1, tracer 1μM), 1.02.
On to `O=C(CCc1ccc2n1[B-](F)(F)[N+]1=C(c3ccc[nH]3)C=CC1=C2)NCc1ccc(C(=O)NCCOCCOCCNCC(O)COc2cccc3ccccc23)cc1` (stereo not drawn) [Propranolol-3-NB590], for which the “NanoBRET Fold Response” value on CXCR6 (CXCR6, 0.1μM) worked out at 0.99; at CXCR6 (CXCR6, 1μM), 0.88; on XCR1 (XCR1, 0.1μM), 1.02; at XCR1 (XCR1, 1μM) it was 0.97; at HCRTR1 (HCRTR1, 0.1μM), 1.01; on HCRTR1 (HCRTR1, 1μM) it was 0.94. The “NanoBRET Fold Response” value at SSTR4 (SSTR4, 0.1μM) is listed as 1.02; at SSTR4 (SSTR4, 1μM), 0.98; at NPBWR1 (NPBWR1, 0.1μM) it was 1.03; on NPBWR1 (NPBWR1, 1μM) it was 0.96.
In the case of `COc1ccccc1N1CCN(CCCCN2C(=O)c3ccc(CNC(=O)CCOCCOCCOCCOCCNC(=O)CCc4ccc5n4[B-](F)(F)[N+]4=C(c6ccc[nH]6)C=CC4=C5)cc3C2=O)CC1` [NAN-190-2-NB590], the “NanoBRET Fold Response” value was determined as 0.94 at CXCR6 (CXCR6, tracer 0.1μM); 1.02 on CXCR6 (CXCR6, tracer 1μM); 1.44 at XCR1 (XCR1, tracer 0.1μM); 1.02 at SSTR4 (SSTR4, tracer 0.1μM); 1.00 at SSTR4 (SSTR4, tracer 1μM); 1.02 at NPBWR1 (NPBWR1, tracer 0.1μM).
`CN(CCC=C1c2ccccc2CCc2ccccc21)C(=O)CCOCCOCCOCCOCCNC(=O)CCc1ccc2n1[B-](F)(F)[N+]1=C(c3ccc[nH]3)C=CC1=C2` [Amitriptyline-e-2-NB590]: the “NanoBRET Fold Response” value on CXCR6 (tracer at 1μM) is 0.98; at XCR1 (tracer at 1μM), 0.99.
Turning to `CN(C)CCC=C1c2ccccc2CCc2ccc(C(=O)NCCNC(=O)CCOCCOCCOCCOCCNC(=O)CCc3ccc4n3[B-](F)(F)[N+]3=C(c5ccc[nH]5)C=CC3=C4)cc21` [Amitriptyline-a-2-NB590], the “NanoBRET Fold Response” value on CXCR6 (tracer at 0.1μM) amounted to 1.07; at CXCR6 (tracer at 1μM), 0.94; at XCR1 (tracer at 0.1μM) it was 1.05; on XCR1 (tracer at 1μM), 0.96; at HCRTR1 (tracer at 0.1μM), 1.00; on HCRTR1 (tracer at 1μM), 1.00. In addition, the “NanoBRET Fold Response” value on SSTR4 (tracer at 0.1μM) and on SSTR4 (tracer at 1μM) was 1.09 each time.
